How the values were obtained:
[1] = biological target: Replicase polyprotein 1ab (Severe acute respiratory syndrome coronavirus 2) (UniProt P0DTD1); experiment: Binding affinity to SARS-Cov-2 Main protease
[2] = biological target: Replicase polyprotein 1ab (Severe acute respiratory syndrome coronavirus 2) (UniProt P0DTD1); experiment: Binding affinity to SARS-Cov-2 PLpro
[3] = biological target: Spike glycoprotein (Severe acute respiratory syndrome coronavirus 2) (UniProt P0DTC2); experiment: Binding affinity to SARS-Cov-2 Spike protein
[4] = biological target: Dual specificity mitogen-activated protein kinase kinase; MEK1/2 (Homo sapiens, UniProt P36507+Q02750); experiment: Inhibition of MEK1/2 (unknown origin); type: protein assay
[5] = Half life in rat; type: ADME; conditions: in vivo
[6] = Half life in dog; type: ADME, Canis lupus familiaris; conditions: in vivo
[7] = Inhibition of CGRP (unknown origin); set-up: species or system Homo sapiens

## CNC(=O)c1ccc(-c2cnc3ncc(Cc4ccc5ncccc5c4)n3n2)cc1F
[1]
  K: -9.3 kcal/mol
[2]
  K: -7.7 kcal/mol
[3]
  K: -7.7 kcal/mol

## Cn1cnc2c(F)c(Nc3ccc(Br)cc3F)c(C(=O)NOCCO)cc21 [BINIMETINIB]
[4]
  IC50: 12 nM

## CN1CCN2c3c(cccc31)[C@@H]1CN(CCCC(=O)c3ccc(F)cc3)CC[C@@H]12 [LUMATEPERONE]
[5]
  half-life: ≤ 1800 min
[6]
  half-life: ≤ 1800 min
[7]
  IC50: 0.14 nM

Reference: ChEMBL document CHEMBL5634097, “A review: FDA-approved fluorine-containing small molecules from 2015 to 2022” (Eur J Med Chem, 2023)
